The source of these data is patent US11331299B2, “Medicinal use of serrulatane diterpenes” (The University of Sydney, priority 2016, dated 2022).

In experiment [1] the test system is MLL2(h) complex. The experiment can be described thus: Epigenetic enzyme assay, Methyltransferases (MTs). It counts as biochemical, human. The settings on record: for % Inhibition of Control Values: 10 μM.
The subject of experiment [2] is J-RT3-T3-5 leukemia. The experiment can be described thus: OncoPanel cell proliferation assay (10-day). It counts as cell-based, human. The settings on record: for EC50 / GI50 / IC50: Homo sapiens; for EC50: read-out: Cell Count EC50; for IC50: read-out: Cell Count IC50.
Experiment [3] deals with Hs695T melanoma cell line. The experiment can be described thus: OncoPanel cell proliferation assay (10-day). In kind it is cell-based. The settings on record: Homo sapiens, Hs 695T; for EC50: read-out: Cell Count EC50; for IC50: read-out: Cell Count IC50.
Experiment [4] concerns the target T1, TAF1(2)(h) bromodomain (Homo sapiens, UniProt P21675).
T1 construct: Bromodomain
T1 sequence (P21675 1519-1628 limits assumed): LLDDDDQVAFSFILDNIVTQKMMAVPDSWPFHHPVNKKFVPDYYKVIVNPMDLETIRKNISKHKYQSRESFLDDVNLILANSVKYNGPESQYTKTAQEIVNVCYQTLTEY
The experiment can be described thus: Epigenetic binding assay, Bromodomain. The following applies: 10 μM; for inhibition at 10 µM: read-out: % Inhibition of Control Specific Binding.

Experiment [5] concerns the target hDNMT3a (Homo sapiens, UniProt Q9Y6K1). Description: Epigenetic enzyme assay, DNA methyltransferases (DNMTs). In kind it is biochemical. The following applies: for inhibition at 10 µM: read-out: % Inhibition of Control Values.
The target of experiment [6] is T2, CBX2 (h) chromodomain (Homo sapiens, UniProt Q14781).
T2 construct: Recognition and specificity determinants of the human cbx chromodomains; Eurofins CEREP (France), contract laboratory
T2 sequence (Q14781 12-70 limits assumed): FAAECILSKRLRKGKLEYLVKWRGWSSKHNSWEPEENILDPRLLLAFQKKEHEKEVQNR
The experiment can be described thus: Epigenetic binding assay, Chromodomain. The following applies: read-out: % Inhibition of Control Specific Binding.

Experiment [7] addresses T3, sirtuin 1 (h) (inhibitor effect) (Homo sapiens, UniProt Q96EB6).
T3 sequence (Q96EB6 1-747): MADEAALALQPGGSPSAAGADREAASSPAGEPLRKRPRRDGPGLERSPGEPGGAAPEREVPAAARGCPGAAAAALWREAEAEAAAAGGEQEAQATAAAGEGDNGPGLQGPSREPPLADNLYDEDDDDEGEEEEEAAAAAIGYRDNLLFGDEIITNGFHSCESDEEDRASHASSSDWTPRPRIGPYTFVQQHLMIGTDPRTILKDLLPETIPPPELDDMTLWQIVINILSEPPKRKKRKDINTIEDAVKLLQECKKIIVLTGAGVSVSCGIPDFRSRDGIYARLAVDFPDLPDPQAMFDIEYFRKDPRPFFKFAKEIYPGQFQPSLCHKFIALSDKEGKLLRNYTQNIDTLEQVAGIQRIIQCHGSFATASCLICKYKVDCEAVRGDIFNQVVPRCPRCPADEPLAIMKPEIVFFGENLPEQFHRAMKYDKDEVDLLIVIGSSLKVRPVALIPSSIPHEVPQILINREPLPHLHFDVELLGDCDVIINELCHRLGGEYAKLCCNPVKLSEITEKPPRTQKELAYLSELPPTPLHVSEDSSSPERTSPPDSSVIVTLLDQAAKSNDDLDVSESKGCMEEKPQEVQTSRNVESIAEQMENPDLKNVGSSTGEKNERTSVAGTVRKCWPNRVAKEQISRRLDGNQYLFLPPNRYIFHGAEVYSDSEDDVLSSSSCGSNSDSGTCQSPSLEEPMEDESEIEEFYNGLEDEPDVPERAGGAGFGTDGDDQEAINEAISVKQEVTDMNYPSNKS
Description: Epigenetic enzyme assay, Sirtuins. It counts as biochemical. The settings on record: read-out: % Inhibition of Control Values.

The target in experiment [8] is HDAC9 (h) (Homo sapiens, UniProt Q9UKV0). Description: Epigenetic enzyme assay, Histone deacetylase (HDACs). In kind it is biochemical. The following applies: read-out: % Inhibition of Control Values.
Sequence of HDAC9 (h) (Q9UKV0 whole entry): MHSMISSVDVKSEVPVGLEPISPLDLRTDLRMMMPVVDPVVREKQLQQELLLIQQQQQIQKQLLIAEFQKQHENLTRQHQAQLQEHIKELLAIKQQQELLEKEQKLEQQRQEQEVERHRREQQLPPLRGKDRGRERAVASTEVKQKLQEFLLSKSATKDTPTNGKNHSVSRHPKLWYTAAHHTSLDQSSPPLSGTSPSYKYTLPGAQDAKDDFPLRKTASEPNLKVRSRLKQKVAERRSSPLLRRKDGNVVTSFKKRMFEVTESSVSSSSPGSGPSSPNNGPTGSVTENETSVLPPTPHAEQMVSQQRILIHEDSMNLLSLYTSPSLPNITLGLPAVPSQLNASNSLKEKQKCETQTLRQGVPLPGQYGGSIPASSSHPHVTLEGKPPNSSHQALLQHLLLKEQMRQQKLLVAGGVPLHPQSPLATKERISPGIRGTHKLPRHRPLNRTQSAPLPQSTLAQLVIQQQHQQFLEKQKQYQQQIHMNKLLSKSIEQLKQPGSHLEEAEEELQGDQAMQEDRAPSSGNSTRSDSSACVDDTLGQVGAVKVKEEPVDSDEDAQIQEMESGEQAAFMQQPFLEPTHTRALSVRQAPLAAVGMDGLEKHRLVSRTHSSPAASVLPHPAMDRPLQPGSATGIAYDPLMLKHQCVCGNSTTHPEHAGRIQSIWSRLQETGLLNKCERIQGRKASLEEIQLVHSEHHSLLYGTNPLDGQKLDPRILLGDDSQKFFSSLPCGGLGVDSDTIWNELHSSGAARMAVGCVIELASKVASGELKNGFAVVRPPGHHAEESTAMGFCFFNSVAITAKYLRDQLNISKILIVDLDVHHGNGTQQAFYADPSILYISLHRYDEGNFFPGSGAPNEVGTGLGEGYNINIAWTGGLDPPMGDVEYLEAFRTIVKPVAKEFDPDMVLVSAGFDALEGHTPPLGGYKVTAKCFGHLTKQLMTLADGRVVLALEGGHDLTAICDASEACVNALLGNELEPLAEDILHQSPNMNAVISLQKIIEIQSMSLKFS
Experiment [9] addresses T4, JMJD2C (h) (Homo sapiens, UniProt Q9H3R0).
T4 sequence (Q9H3R0 1-1056): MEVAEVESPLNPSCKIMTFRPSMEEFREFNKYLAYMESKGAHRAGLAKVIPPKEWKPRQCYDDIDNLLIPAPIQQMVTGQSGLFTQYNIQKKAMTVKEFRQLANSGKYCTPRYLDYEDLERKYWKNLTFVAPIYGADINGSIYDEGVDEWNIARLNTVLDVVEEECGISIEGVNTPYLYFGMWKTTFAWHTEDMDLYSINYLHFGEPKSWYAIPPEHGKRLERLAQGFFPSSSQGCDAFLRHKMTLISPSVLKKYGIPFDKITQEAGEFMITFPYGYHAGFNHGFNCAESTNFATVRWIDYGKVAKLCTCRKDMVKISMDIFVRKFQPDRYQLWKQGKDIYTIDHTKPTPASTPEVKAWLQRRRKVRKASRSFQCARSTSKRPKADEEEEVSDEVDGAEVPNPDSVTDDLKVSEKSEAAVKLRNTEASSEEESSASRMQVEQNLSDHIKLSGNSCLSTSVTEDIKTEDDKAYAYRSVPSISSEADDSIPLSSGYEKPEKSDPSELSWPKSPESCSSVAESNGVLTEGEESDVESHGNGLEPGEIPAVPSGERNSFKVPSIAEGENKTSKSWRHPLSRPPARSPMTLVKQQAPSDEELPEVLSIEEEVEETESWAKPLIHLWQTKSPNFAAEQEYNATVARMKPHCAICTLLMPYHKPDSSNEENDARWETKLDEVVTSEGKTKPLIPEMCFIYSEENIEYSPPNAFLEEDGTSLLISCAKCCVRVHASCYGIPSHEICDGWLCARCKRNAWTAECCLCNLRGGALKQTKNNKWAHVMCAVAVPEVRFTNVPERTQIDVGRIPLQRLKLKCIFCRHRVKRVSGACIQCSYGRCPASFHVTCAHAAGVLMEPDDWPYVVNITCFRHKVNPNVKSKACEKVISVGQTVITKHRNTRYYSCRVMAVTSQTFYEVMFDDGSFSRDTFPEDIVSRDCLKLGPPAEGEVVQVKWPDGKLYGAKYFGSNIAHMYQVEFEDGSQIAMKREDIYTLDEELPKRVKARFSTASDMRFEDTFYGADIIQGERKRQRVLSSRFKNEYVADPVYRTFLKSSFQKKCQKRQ
Description: Epigenetic enzyme assay, Demethylases (KDMs). The following applies: read-out: % Inhibition of Control Values. It counts as biochemical.

The mark [10] stands for this setting: J-RT3-T3-5, Leukemia, read-out: Cell Count GI50.
[11] abbreviates: Skin (Melanoma), read-out: Cell Count GI50.

Like-named read-outs stand apart in the source and are kept apart here.

Sequence of hDNMT3a (Q9Y6K1 whole entry, looked up): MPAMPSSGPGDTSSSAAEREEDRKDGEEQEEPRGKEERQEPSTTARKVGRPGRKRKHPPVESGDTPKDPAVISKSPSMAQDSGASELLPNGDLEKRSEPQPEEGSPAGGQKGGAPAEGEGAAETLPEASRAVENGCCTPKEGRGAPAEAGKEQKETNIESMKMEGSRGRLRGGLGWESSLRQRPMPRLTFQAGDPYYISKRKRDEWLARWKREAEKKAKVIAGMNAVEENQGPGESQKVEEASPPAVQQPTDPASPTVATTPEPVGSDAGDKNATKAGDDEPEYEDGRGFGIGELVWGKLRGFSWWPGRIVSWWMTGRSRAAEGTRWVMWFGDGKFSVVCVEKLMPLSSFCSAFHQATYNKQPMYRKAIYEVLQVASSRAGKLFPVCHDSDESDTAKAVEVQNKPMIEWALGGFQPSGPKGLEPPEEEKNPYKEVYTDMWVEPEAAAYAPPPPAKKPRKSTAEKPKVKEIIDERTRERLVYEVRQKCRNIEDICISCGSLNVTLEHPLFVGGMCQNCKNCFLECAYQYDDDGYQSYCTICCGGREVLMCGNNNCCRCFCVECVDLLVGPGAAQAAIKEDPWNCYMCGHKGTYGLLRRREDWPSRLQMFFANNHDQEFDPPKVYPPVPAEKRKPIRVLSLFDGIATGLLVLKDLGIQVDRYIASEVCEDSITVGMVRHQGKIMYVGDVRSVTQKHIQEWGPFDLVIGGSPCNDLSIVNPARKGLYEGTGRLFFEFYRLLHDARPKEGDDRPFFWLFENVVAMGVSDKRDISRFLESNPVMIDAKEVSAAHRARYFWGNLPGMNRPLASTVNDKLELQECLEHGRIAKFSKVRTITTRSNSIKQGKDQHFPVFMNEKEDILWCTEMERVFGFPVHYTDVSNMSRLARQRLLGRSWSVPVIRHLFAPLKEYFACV

As usually defined, the EC50 is the concentration that produces a half-maximal response. As usually defined, the GI50 is the concentration giving 50% growth inhibition. As a reminder, the IC50 is the concentration at which inhibition is half-maximal. A word on the inhibition: it is the relative decrease from the control value, in per cent. As for `CC(C)=CCC[C@@H]1C(O)Oc2c(C)cc(O)c3c2[C@H]1CC[C@H]3C` (stereo partly shown) [Compound 2, 5,18-epoxyserrulat-14-en-8,18-diol], in experiment [1], the “% Inhibition of Control Values” is given as 3%. For the same molecule, the EC50 is 2080 nM in experiment [2] (J-RT3-T3-5, Leukemia) and 9070 nM in experiment [3] (Skin (Melanoma)). Moreover, the 50% growth inhibitory concentration (GI50) is 2060 nM in [2] (setting [10]) and 8990 nM in experiment [3] (setting [11]). In addition, the IC50 stood at 2080 nM in experiment [2] (J-RT3-T3-5, Leukemia) and 9480 nM in experiment [3] (Skin (Melanoma)). Also, the inhibition at 10 µM is 28% in [4]; 3% in experiment [5]; 6% in [6]; -3% in experiment [7]; -1% in experiment [8]; 2% in experiment [9].

With `CC(C)=CCC[C@@H]1COc2c(C)cc(O)c3c2[C@H]1CC[C@H]3C` [Compound 3, 5,18-epoxy-8-hydroxyserrulat-14-ene], in experiment [1], the “% Inhibition of Control Values” was −15%. Also, the inhibition at 10 µM is 22% in experiment [4]; -31% in [5]; 3% in experiment [6]; -5% in [7]; -9% in experiment [8]; 8% in experiment [9].

Consider `CC(C)=CCC[C@H](CO)[C@@H]1CC[C@@H](C)c2c1cc(C)c(O)c2O` [Compound 1, 7,8,18-trihydroxyserrulat-14-ene], for which the “% Inhibition of Control Values” in experiment [1] came out at 6%. Besides, the GI50 in experiment [2] (J-RT3-T3-5, read-out: GI50) is 10.1 nM; in experiment [2] (setting [10]), 10 nM; in experiment [3] (calculated on a weight-weight basis, read-out: GI50) it was 0.37 µg/mL; in [3] (setting [11]), 1160 nM. In addition, the concentration for a half-maximal effect (EC50) in experiment [2] (J-RT3-T3-5, Leukemia) was 10 nM; in [3] (Skin (Melanoma)), 1180 nM. The half-inhibitory concentration (IC50) in experiment [2] (J-RT3-T3-5, Leukemia) amounted to 10 nM; in experiment [3] (Skin (Melanoma)) it was 1270 nM. For the same molecule, the “% Inhibition of Control Specific Binding” value in experiment [4] was “significant inhibitory activity”. In addition, the inhibition at 10 µM was 62% in [4]; 3% in experiment [5]; 17% in experiment [6]; 2% in experiment [7]; -50% in [8]; 35% in [9].

`CC(C)=CCC[C@H](C)[C@@H]1CC[C@@H](C)c2c1cc(C)c(O)c2O` [Compound 4, 7,8-dihydroxyserrulat-14-ene]: the GI50 in [2] (J-RT3-T3-5, read-out: GI50) came out at 2710 nM; in experiment [2] (setting [10]), 2710 nM; in experiment [3] (setting [11]) it was 4020 nM. Also, the EC50 was found to be 2710 nM in experiment [2] (J-RT3-T3-5, Leukemia) and 5000 nM in experiment [3] (Skin (Melanoma)). The IC50 in experiment [2] (J-RT3-T3-5, Leukemia) stood at 2710 nM; in experiment [3] (Skin (Melanoma)) it was 5180 nM. Further, the “times less activity than Compound 1” value in [2] (ratio of GI50 values) is listed as “approximately 270 times”.

For `Nc1ncnc2c1ncn2[C@@H]1O[C@H](CSCC[C@H](N)C(=O)O)[C@@H](O)[C@H]1O` [SAH], the IC50 was 24000 nM in [1] (read-out: Reference IC50) and 52 nM in experiment [5] (read-out: Reference IC50).
